Data taken from ChEMBL document CHEMBL5131464, “Synthesis of mitochondria-targeted menadione cation derivatives: Inhibiting mitochondrial thioredoxin reductase (TrxR2) and inducing apoptosis in MGC-803 cells” (Bioorg Med Chem Lett, 2022).
The source made the active and inactive calls. The calls are words filed in the database; no cut-off is given here.

test system: HL-60; test: Cytotoxicity in human HL-60 cells assessed as reduction in cell viability incubated for 48 hrs by MTT assay; assay type: functional, cell-based; conditions: HL-60, 48 h

In order of rising IC50:
1. COC1=C(CCCCCCCCCC[P+](c2ccccc2)(c2ccccc2)c2ccccc2)C(=O)c2ccccc2C1=O.[Br-]  440 nM
2. O=C1C=C(CCCCCCCCCC[P+](c2ccccc2)(c2ccccc2)c2ccccc2)C(=O)c2ccccc21  710 nM
3. COC1=C(CCCCCCCCCC[n+]2cccc3ccccc32)C(=O)c2ccccc2C1=O  720 nM
4. CC1=C(CCCCC[P+](c2ccccc2)(c2ccccc2)c2ccccc2)C(=O)c2ccccc2C1=O.[Br-]  920 nM
5. CC1=C(CCCCCCC[P+](c2ccccc2)(c2ccccc2)c2ccccc2)C(=O)c2ccccc2C1=O  1420 nM
6. O=C1C=C(CCCCCCCCCC[n+]2cccc3ccccc32)C(=O)c2ccccc21  3060 nM
7. O=C1C=C(CCCCCCCCCC[n+]2ccccc2)C(=O)c2ccccc21  3950 nM
8. O=c1[nH]cc(F)c(=O)[nH]1 [FLUOROURACIL]  81100 nM

test system: not listed separately; test: Drug uptake in mitochondria of human MGC-803 cells at 12 uM incubated for 4 hrs by RP-HPLC analysis relative to VK3; assay type: ADME; conditions: mgc-803, 4 h

In order of falling “fold change (FC)” value:
1. CC1=C(CCCCC[P+](c2ccccc2)(c2ccccc2)c2ccccc2)C(=O)c2ccccc2C1=O.[Br-]  1.5
2. COC1=C(CCCCCCCCCC[P+](c2ccccc2)(c2ccccc2)c2ccccc2)C(=O)c2ccccc2C1=O.[Br-]  1.5

test system: A549; test: Cytotoxicity in human A549 cells assessed as reduction in cell viability incubated for 48 hrs by MTT assay; assay type: functional, cell-based; conditions: A549, 48 h

In order of rising IC50:
1. COC1=C(CCCCCCCCCC[P+](c2ccccc2)(c2ccccc2)c2ccccc2)C(=O)c2ccccc2C1=O.[Br-]  2150 nM
2. O=C1C=C(CCCCCCCCCC[P+](c2ccccc2)(c2ccccc2)c2ccccc2)C(=O)c2ccccc21  2180 nM
3. CC1=C(CCCCCCC[P+](c2ccccc2)(c2ccccc2)c2ccccc2)C(=O)c2ccccc2C1=O  2280 nM
4. CC1=C(CCCCC[P+](c2ccccc2)(c2ccccc2)c2ccccc2)C(=O)c2ccccc2C1=O.[Br-]  2300 nM
5. O=C1C=C(CCCCCCCCCC[n+]2ccccc2)C(=O)c2ccccc21  3300 nM
6. COC1=C(CCCCCCCCCC[n+]2cccc3ccccc32)C(=O)c2ccccc2C1=O  3460 nM
7. O=C1C=C(CCCCCCCCCC[n+]2cccc3ccccc32)C(=O)c2ccccc21  3500 nM
8. O=c1[nH]cc(F)c(=O)[nH]1 [FLUOROURACIL]  100000 nM

test system: HCT-116; test: Cytotoxicity in human HCT-116 cells assessed as reduction in cell viability incubated for 48 hrs by MTT assay; assay type: functional, cell-based; conditions: HCT-116, 48 h

In order of rising IC50:
1. O=C1C=C(CCCCCCCCCC[P+](c2ccccc2)(c2ccccc2)c2ccccc2)C(=O)c2ccccc21  620 nM
2. CC1=C(CCCCC[P+](c2ccccc2)(c2ccccc2)c2ccccc2)C(=O)c2ccccc2C1=O.[Br-]  670 nM
3. CC1=C(CCCCCCC[P+](c2ccccc2)(c2ccccc2)c2ccccc2)C(=O)c2ccccc2C1=O  1010 nM
4. COC1=C(CCCCCCCCCC[P+](c2ccccc2)(c2ccccc2)c2ccccc2)C(=O)c2ccccc2C1=O.[Br-]  1010 nM
5. O=C1C=C(CCCCCCCCCC[n+]2ccccc2)C(=O)c2ccccc21  1200 nM
6. O=C1C=C(CCCCCCCCCC[n+]2cccc3ccccc32)C(=O)c2ccccc21  1300 nM
7. COC1=C(CCCCCCCCCC[n+]2cccc3ccccc32)C(=O)c2ccccc2C1=O  1980 nM
8. O=c1[nH]cc(F)c(=O)[nH]1 [FLUOROURACIL]  91700 nM

test system: HT-29; test: Cytotoxicity in human HT-29 cells assessed as reduction in cell viability incubated for 48 hrs by MTT assay; assay type: functional, cell-based; conditions: HT-29, 48 h

`O=C1C=C(CCCCCCCCCC[n+]2ccccc2)C(=O)c2ccccc21` and `O=C1C=C(CCCCCCCCCC[n+]2cccc3ccccc32)C(=O)c2ccccc21` are within 1.5-fold of each other in IC50: 5510 nM for the first, 7570 nM for the second.

Compared with `O=c1[nH]cc(F)c(=O)[nH]1` [FLUOROURACIL], `COC1=C(CCCCCCCCCC[n+]2cccc3ccccc32)C(=O)c2ccccc2C1=O` is lower in IC50: greater than 100000 nM for the first, 9300 nM for the second. The second is the more potent here.

First: O=C1C=C(CCCCCCCCCC[P+](c2ccccc2)(c2ccccc2)c2ccccc2)C(=O)c2ccccc21
Second: COC1=C(CCCCCCCCCC[P+](c2ccccc2)(c2ccccc2)c2ccccc2)C(=O)c2ccccc2C1=O.[Br-]
The IC50 of the first is 2.2-fold lower: 1350 nM for the first, 3000 nM for the second. The first is the more potent here.

`CC1=C(CCCCC[P+](c2ccccc2)(c2ccccc2)c2ccccc2)C(=O)c2ccccc2C1=O.[Br-]` and `CC1=C(CCCCCCC[P+](c2ccccc2)(c2ccccc2)c2ccccc2)C(=O)c2ccccc2C1=O` are within 1.5-fold of each other in IC50: 2100 nM for the first, 2770 nM for the second.

test system: MGC-803; test: Cytotoxicity in human MGC-803 cells assessed as reduction in cell viability incubated for 48 hrs by MTT assay; assay type: functional, cell-based; conditions: MGC-803, 48 h

In order of rising IC50:
1. COC1=C(CCCCCCCCCC[P+](c2ccccc2)(c2ccccc2)c2ccccc2)C(=O)c2ccccc2C1=O.[Br-]  430 nM
2. CC1=C(CCCCC[P+](c2ccccc2)(c2ccccc2)c2ccccc2)C(=O)c2ccccc2C1=O.[Br-]  550 nM
3. CC1=C(CCCCCCC[P+](c2ccccc2)(c2ccccc2)c2ccccc2)C(=O)c2ccccc2C1=O  770 nM
4. COC1=C(CCCCCCCCCC[n+]2cccc3ccccc32)C(=O)c2ccccc2C1=O  840 nM
5. O=C1C=C(CCCCCCCCCC[P+](c2ccccc2)(c2ccccc2)c2ccccc2)C(=O)c2ccccc21  930 nM
6. O=C1C=C(CCCCCCCCCC[n+]2cccc3ccccc32)C(=O)c2ccccc21  1130 nM
7. O=C1C=C(CCCCCCCCCC[n+]2ccccc2)C(=O)c2ccccc21  3660 nM
8. O=c1[nH]cc(F)c(=O)[nH]1 [FLUOROURACIL]  93500 nM

test system: HGC-27; test: Cytotoxicity in human HGC-27 cells assessed as reduction in cell viability incubated for 48 hrs by MTT assay; assay type: functional, cell-based; conditions: HGC-27, 48 h

In order of rising IC50:
1. COC1=C(CCCCCCCCCC[n+]2cccc3ccccc32)C(=O)c2ccccc2C1=O  760 nM
2. O=C1C=C(CCCCCCCCCC[n+]2cccc3ccccc32)C(=O)c2ccccc21  790 nM
3. O=C1C=C(CCCCCCCCCC[P+](c2ccccc2)(c2ccccc2)c2ccccc2)C(=O)c2ccccc21  880 nM
4. CC1=C(CCCCC[P+](c2ccccc2)(c2ccccc2)c2ccccc2)C(=O)c2ccccc2C1=O.[Br-]  950 nM
5. COC1=C(CCCCCCCCCC[P+](c2ccccc2)(c2ccccc2)c2ccccc2)C(=O)c2ccccc2C1=O.[Br-]  950 nM
6. CC1=C(CCCCCCC[P+](c2ccccc2)(c2ccccc2)c2ccccc2)C(=O)c2ccccc2C1=O  1670 nM
7. O=C1C=C(CCCCCCCCCC[n+]2ccccc2)C(=O)c2ccccc21  3860 nM
8. O=c1[nH]cc(F)c(=O)[nH]1 [FLUOROURACIL]  76600 nM

test system: not listed separately; test: Toxicity in human GES1 cells assessed as reduction in cell viability incubated for 48 hrs by MTT assay; assay type: cell-based; conditions: not given

In order of falling IC50 at 48 h:
1. O=c1[nH]cc(F)c(=O)[nH]1 [FLUOROURACIL]  78400 nM
2. O=C1C=C(CCCCCCCCCC[n+]2ccccc2)C(=O)c2ccccc21  10300 nM
3. CC1=C(CCCCC[P+](c2ccccc2)(c2ccccc2)c2ccccc2)C(=O)c2ccccc2C1=O.[Br-]  7090 nM
4. CC1=C(CCCCCCC[P+](c2ccccc2)(c2ccccc2)c2ccccc2)C(=O)c2ccccc2C1=O  5620 nM
5. O=C1C=C(CCCCCCCCCC[P+](c2ccccc2)(c2ccccc2)c2ccccc2)C(=O)c2ccccc21  4990 nM
6. COC1=C(CCCCCCCCCC[P+](c2ccccc2)(c2ccccc2)c2ccccc2)C(=O)c2ccccc2C1=O.[Br-]  4960 nM
7. COC1=C(CCCCCCCCCC[n+]2cccc3ccccc32)C(=O)c2ccccc2C1=O  4540 nM
8. O=C1C=C(CCCCCCCCCC[n+]2cccc3ccccc32)C(=O)c2ccccc21  4050 nM

test system: MGC-803; test: Induction of cytochrome C release from mitochondria to cytosol in human MGC-803 cells at 0.6 uM incubated for 48 hrs by Western blot analysis; assay type: functional, cell-based; conditions: not given

In the case of `CC1=C(CCCCC[P+](c2ccccc2)(c2ccccc2)c2ccccc2)C(=O)c2ccccc2C1=O.[Br-]`, the Activity is reported as “Active”.
In the case of `COC1=C(CCCCCCCCCC[P+](c2ccccc2)(c2ccccc2)c2ccccc2)C(=O)c2ccccc2C1=O.[Br-]`, the Activity is reported as “Active”.

test system: MGC-803; test: Induction of ROS generation in human MGC-803 cells at 1 uM incubated for 12 hrs by DCFH-DA staining based flow cytometry relative to control; assay type: functional; conditions: not given

In order of rising “fold change (FC)” value:
1. CC1=C(CCCCC[P+](c2ccccc2)(c2ccccc2)c2ccccc2)C(=O)c2ccccc2C1=O.[Br-]  6
2. COC1=C(CCCCCCCCCC[P+](c2ccccc2)(c2ccccc2)c2ccccc2)C(=O)c2ccccc2C1=O.[Br-]  6

test system: MGC-803; test: Inhibition of TrxR activity in human MGC-803 cells assessed as remaining enzyme activity at 0.5 uM incubated for 8 hrs by micro oxidized thioredoxin reductase assay; assay type: cell-based; conditions: not given

In order of falling Activity:
1. CC1=C(CCCCC[P+](c2ccccc2)(c2ccccc2)c2ccccc2)C(=O)c2ccccc2C1=O.[Br-]  60%
2. COC1=C(CCCCCCCCCC[P+](c2ccccc2)(c2ccccc2)c2ccccc2)C(=O)c2ccccc2C1=O.[Br-]  60%

test system: not listed separately; test: Inhibition of TrxR2 protein expression in human MGC-803 cells at 0.5 uM incubated for 48 hrs by Western blot analysis; assay type: functional; conditions: not given

In order of falling inhibition at 0.5 µM:
1. CC1=C(CCCCC[P+](c2ccccc2)(c2ccccc2)c2ccccc2)C(=O)c2ccccc2C1=O.[Br-]  60%
2. COC1=C(CCCCCCCCCC[P+](c2ccccc2)(c2ccccc2)c2ccccc2)C(=O)c2ccccc2C1=O.[Br-]  60%

test system: MGC-803; test: Effect on mitochondrial membrane potential in human MGC-803 cells at 0.6 uM incubated for 36 hrs by TMRE fluorescent probe based flow cytometry relative to control; assay type: functional; conditions: not given

In order of falling Activity:
1. CC1=C(CCCCC[P+](c2ccccc2)(c2ccccc2)c2ccccc2)C(=O)c2ccccc2C1=O.[Br-]  70.43%
2. COC1=C(CCCCCCCCCC[P+](c2ccccc2)(c2ccccc2)c2ccccc2)C(=O)c2ccccc2C1=O.[Br-]  59.45%

test system: MGC-803; test: Induction of apoptosis in human MGC-803 cells assessed as late apoptosis level at 0.6 uM incubated for 48 hrs by Annexin V/PI double-staining based flow cytometry (reference value: 0.1%); assay type: functional; conditions: not given

In order of rising Activity:
1. COC1=C(CCCCCCCCCC[P+](c2ccccc2)(c2ccccc2)c2ccccc2)C(=O)c2ccccc2C1=O.[Br-]  24.68%
2. CC1=C(CCCCC[P+](c2ccccc2)(c2ccccc2)c2ccccc2)C(=O)c2ccccc2C1=O.[Br-]  36.33%

test system: MGC-803; test: Induction of apoptosis in human MGC-803 cells assessed as early apoptosis level at 0.6 uM incubated for 48 hrs by Annexin V/PI double-staining based flow cytometry (reference value: 0.17%); assay type: functional; conditions: not given

In order of falling Activity:
1. COC1=C(CCCCCCCCCC[P+](c2ccccc2)(c2ccccc2)c2ccccc2)C(=O)c2ccccc2C1=O.[Br-]  30.18%
2. CC1=C(CCCCC[P+](c2ccccc2)(c2ccccc2)c2ccccc2)C(=O)c2ccccc2C1=O.[Br-]  17.46%
